Experimental data as given in patent US12239643B2, “Therapeutic agent for inflammatory diseases, autoimmune diseases, fibrotic diseases, and cancer diseases” (MEIJI SEIKA PHARMA CO., LTD., priority 2018, dated 2025).
pIC50: −log10 of the molar value. Read-outs that look alike come from different tables or passages of the source.

Legend:
PDE4 = experiment: Evaluation of PDE4 inhibitory activity, scintillation proximity assay; type: biochemical; details: for PDE4 inhibitory activity: summary in words of Tables 57 to 69
How it was run: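 IC50 was derived from inhibition curves, referenced to an enzyme-free blank and a DMSO-only control. Compound, PDE4 preparation and tritiated cAMP reacted 120 min at RT in Tris-HCl buffer (pH 7.4) with MgCl2, EGTA and BSA; YSi-SPA beads with ZnSO4 bound product before scintillation counting.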

[1] = tested on: oxazolone-induced auricle edema, BALB/c mice; experiment: Hapten repeated application mouse chronic dermatitis model (oral, topical); type: in vivo; details: oral, 0.3 to 10 mg/kg twice a day for 10 days
Experimental: Evaluation was carried out using female BALB/c mice (7 to 8 weeks of age). First, the hair of the abdomen of the mice was treated with a hair clipper, and then 150 μL of a 3% oxazolone acetone/ethanol solution was applied to the abdomen as a hapten. One week later, 20 μL/ear of 1% oxazolone acetone/ethanol solution was applied to the outer surface of the auricle of both ears of the mice 3 times/week to induce inflammation. A 1% oxazolone-acetone/ethanol solution was applied every other day for 10 days from 1 week after the start of inflammation induction. In addition, for 10 days from 1 week after the start of inflammation induction, the test compound suspended in 0.5% w/v methylcellulose (0.5% MC) was orally administered at 0.3 to 10 mg/kg twice a day (10 μL/g), or 20 μL of a 0.3 to 3% test compound dissolved in an acetone/ethanol solution was applied once or twice a day (topical administration). A 1% oxazolone was not applied to the blank. The control was one in which 1% oxazolone was applied and only 0.5% MC was orally administered without using the test compound, or only an acetone/ethanol solution was applied.
After administration for 10 days, auricle thickness was measured using a dial thickness gauge, and the changes in auricular thickness before the treatment (immediately before the start of administration of the test compound) and after the treatment (after the administration of the test compound for 10 days) were used to calculate the edema suppression rate by the following formula. Edema Suppression Rate (%)={1−(Auricle Thickness After Treatment by Test Compound−Auricle Thickness Before Treatment by Test Compound)/(Auricle Thickness After Treatment of Control−Auricle Thickness Before Treatment of Control)}×100
The measurement results obtained by measuring the edema suppression rate at the time of oral administration of each test compound by the above method were evaluated in accordance with the following evaluated basis; A: 70% or more, B: 40% or more and less than 70%, and C: less than 40%. In addition, the measurement results obtained by measuring the edema suppression rate at the time of topical administration of each test compound were evaluated in accordance with the following evaluated basis; A: 100% or more, B: 70% or more and less than 100%, and C: less than 70%.

[2] = Hepatic metabolic stability (rat liver microsome method); type: in vitro ADME; details: rat liver microsomes 0.5 mg/mL, test substance 1 μM, NADPH 1 mM, 37° C., 30 minutes
How it was run: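 Scored by % parent left after 30 min (30 min/0 min ×100, LC-MS), banded A ≥75%, B 60–<75%, C 45–<60%, D <45%. Incubation: 1 μM compound, 0.5 mg/mL rat microsomes, pH 7.4 phosphate buffer, 37° C, 5 min preincubation, NADPH 1 mM started, acetonitrile quench.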

[3] = finer grading of compounds rated A in Evaluation 1, read-out: PDE4 Inhibitory Activity (Evaluation 2)
[4] = scintillation proximity assay, read-out: PDE4 Inhibitory Activity (Evaluation 1; concentration for the inhibition rate of 50%)
[5] = scintillation proximity assay, class symbols of Evaluation 1, read-out: PDE4 Inhibitory Activity (concentration for the inhibition rate of 50%, IC50), Evaluation 1

Compound | pIC50 (PDE4; [3]) | pIC50 (PDE4; [4]) | PDE4 inhibitory activity (PDE4) | Mouse Chronic Dermatitis Model (Test Example 8), Oral: edema suppression rate [1] | Residual ratio (% remaining for 30-minute reaction) [2] | pIC50 (PDE4; [5])
COC(C)(c1ccc(-c2nccs2)c2oc(N3CC4CC(C3)N4)nc12)C(F)(F)F (centres unmarked) [Example 235, 2-(3,6-Diazabicyclo[3.1.1]heptan-3-yl)-7-(thiazol-2-yl)-4-(1,1,1-trifluoro-2-methoxypropan-2-yl)benzo[d]oxazole] | ≥ 9.00 | > 7.00 | particularly excellent | A (A: 70% or more) |  | 
CC(O)(c1ccc(-c2nccs2)c2oc(N3CC4CC(C3)N4)nc12)C(F)(F)F (centres unmarked) [Example 234, 2-(2-(3,6-Diazabicyclo[3.1.1]heptan-3-yl)-7-(thiazol-2-yl)benzo[d]oxazol-4-yl)-1,1,1-trifluoropropan-2-ol] | ≥ 9.00 | > 7.00 | particularly excellent | A (A: 70% or more) |  | 
OCC(F)(F)Oc1ccc(-c2ccc(F)cn2)c2oc(N3CC4CC(C3)N4)nc12 [Example 319, 2-((2-(3,6-Diazabicyclo[3.1.1]heptan-3-yl)-7-(5-fluoropyridin-2-yl)benzo[d]oxazol-4-yl)oxy)-2,2-difluoroethan-1-ol] |  | > 7.00 |  |  | A (A: a % remaining rate of 75% or more) | 
O=C(c1ccc(-c2nccs2)c2oc(N3CC4CC(C3)N4)nc12)N1CCCC1 [Example 360, (2-(3,6-Diazabicyclo[3.1.1]heptan-3-yl)-7-(thiazol-2-yl)benzo[d]oxazol-4-yl) (pyrrolidin-1-yl)methanone] |  | 6.00 to 7.00 |  |  | A (A: a % remaining rate of 75% or more) | 
FC(F)(F)Oc1c(Cl)cc(-c2cscn2)c2oc(N3CC4CCC(C3)N4)nc12 [Example 8, 2-(3,8-Diazabicyclo[3.2.1]octan-3-yl)-5-chloro-7-(thiazol-4-yl)-4-(trifluoromethoxy)benzo[d]oxazole] |  |  |  |  | A (A: a % remaining rate of 75% or more) | > 7.00
O=C(NCCO)C(F)(F)Oc1ccc(-c2nccs2)c2oc(N3CC4CC(C3)N4)nc12 [Example 411, 2-((2-(3,6-Diazabicyclo[3.1.1]heptan-3-yl)-7-(thiazol-2-yl)benzo[d]oxazol-4-yl)oxy)-2,2-difluoro-N-(2-hydroxyethyl)acetamide] |  | > 7.00 |  |  | A (A: a % remaining rate of 75% or more) | 
CCNC(=O)c1ccc(-c2nccs2)c2oc(N3CC4CC(C3)N4)nc12 [Example 358, 2-(3,6-Diazabicyclo[3.1.1]heptan-3-yl)-N-ethyl-7-(thiazol-2-yl)benzo[d]oxazole-4-carboxamide] |  | > 7.00 |  |  | A (A: a % remaining rate of 75% or more) | 
FC(F)(F)c1ccc(Oc2ccc(-c3nccs3)c3oc(N4CC5CC(C4)N5)nc23)nc1 [Example 336, 2-(3,6-Diazabicyclo[3.1.1]heptan-3-yl)-7-(thiazol-2-yl)-4-((5-(trifluoromethyl)pyridin-2-yl)oxy)benzo[d]oxazole] |  | > 7.00 |  |  | B (B: 60% or more and less than 75%) | 
FC(F)(F)Oc1ccc(Oc2ccc(-c3nccs3)c3oc(N4CC5CC(C4)N5)nc23)nc1 [Example 343, 2-(3,6-Diazabicyclo[3.1.1]heptan-3-yl)-7-(thiazol-2-yl)-4-((5-(trifluoromethoxy)pyridin-2-yl)oxy)benzo[d]oxazole] |  | > 7.00 |  |  | B (B: 60% or more and less than 75%) | 
Fc1ccc(-c2cc(Cl)c(OC(F)(F)F)c3nc(N4CC5CCC(C4)N5)oc23)nc1 [Example 10, 2-(3,8-Diazabicyclo[3.2.1]octan-3-yl)-5-chloro-7-(5-fluoropyridin-2-yl)-4-(trifluoromethoxy)benzo[d]oxazole] |  |  |  |  | A (A: a % remaining rate of 75% or more) | > 7.00
O=S(=O)(CCO)c1ccc(-c2nccs2)c2oc(N3CC4CC(C3)N4)nc12 [Example 350, 2-((2-(3,6-Diazabicyclo[3.1.1]heptan-3-yl)-7-(thiazol-2-yl)benzo[d]oxazol-4-yl)sulfonyl)ethan-1-ol] |  | > 7.00 |  |  | A (A: a % remaining rate of 75% or more) | 
c1csc(-c2ccc(O[C@H]3CCOC3)c3nc(N4CC5CC(C4)N5)oc23)n1 [Example 323, 2-(3,6-Diazabicyclo[3.1.1]heptan-3-yl)-4-(((S)-tetrahydrofuran-3-yl)oxy)-7-(thiazol-2-yl)benzo[d]oxazole] |  | > 7.00 |  |  | B (B: 60% or more and less than 75%) | 
O=C(c1ccc(-c2nccs2)c2oc(N3CC4CC(C3)N4)nc12)N1CCOCC1 [Example 359, (2-(3,6-Diazabicyclo[3.1.1]heptan-3-yl)-7-(thiazol-2-yl)benzo[d]oxazol-4-yl) (morpholino)methanone] |  | 6.00 to 7.00 |  |  | A (A: a % remaining rate of 75% or more) | 
CC(C)(O)C(F)(F)Oc1ccc(-n2nccn2)c2oc(N3CC4CCC(C3)N4)nc12 [Example 322, 1-((2-(3,8-Diazabicyclo[3.2.1]octan-3-yl)-7-(2H-1,2,3-triazol-2-yl)benzo[d]oxazol-4-yl)oxy)-1,1-difluoro-2-methylpropan-2-ol] |  | > 7.00 |  |  | A (A: a % remaining rate of 75% or more) | 
Cc1csc(-c2ccc(OC(F)(F)C(C)(C)O)c3nc(N4CC5CCC(C4)N5)oc23)n1 [Example 318, 1-((2-(3,8-Diazabicyclo[3.2.1]octan-3-yl)-7-(4-methylthiazol-2-yl)benzo[d]oxazol-4-yl)oxy)-1,1-difluoro-2-methylpropan-2-ol] |  | > 7.00 |  |  | B (B: 60% or more and less than 75%) | 
Cc1nsc(-c2ccc(OC(F)(F)C(C)(C)O)c3nc(N4CC5CCC(C4)N5)oc23)n1 [Example 333, 1-((2-(3,8-Diazabicyclo[3.2.1]octan-3-yl)-7-(3-methyl-1,2,4-thiadiazol-5-yl)benzo[d]oxazol-4-yl)oxy)-1,1-difluoro-2-methylpropan-2-ol] |  | 6.00 to 7.00 |  |  | B (B: 60% or more and less than 75%) | 
O=C(NCCO)c1ccc(-c2nccs2)c2oc(N3CC4CC(C3)N4)nc12 [Example 355, 2-(3,6-Diazabicyclo[3.1.1]heptan-3-yl)-N-(2-hydroxyethyl)-7-(thiazol-2-yl)benzo[d]oxazole-4-carboxamide] |  | > 7.00 |  |  | A (A: a % remaining rate of 75% or more) | 
Cc1cc(C(F)(F)F)c(Oc2ccc(-c3nccs3)c3oc(N4CC5CC(C4)N5)nc23)nn1 [Example 340, 2-(3,6-Diazabicyclo[3.1.1]heptan-3-yl)-4-((6-methyl-4-(trifluoromethyl)pyridazin-3-yl)oxy)-7-(thiazol-2-yl)benzo[d]oxazole] |  | > 7.00 |  |  | A (A: a % remaining rate of 75% or more) | 
O=S(=O)(NCCO)c1ccc(-c2nccs2)c2oc(N3CC4CC(C3)N4)nc12 [Example 385, 2-(3,6-Diazabicyclo[3.1.1]heptan-3-yl)-N-(2-hydroxyethyl)-7-(thiazol-2-yl)benzo[d]oxazole-4-sulfonamide] |  | > 7.00 |  |  | A (A: a % remaining rate of 75% or more) | 
OCCSc1ccc(-c2nccs2)c2oc(N3CC4CC(C3)N4)nc12 [Example 348, 2-((2-(3,6-Diazabicyclo[3.1.1]heptan-3-yl)-7-(thiazol-2-yl)benzo[d]oxazol-4-yl)thio)ethan-1-ol] |  | > 7.00 |  |  | B (B: 60% or more and less than 75%) | 
